Values after ≈ are worked out from the molar mass of the structure shown.

The test system of data set [1] is tubercle bacilli. Put plainly: Activity of mimosamycin against tubercle bacilli (in words). In kind it is cell-based.
The test system of data set [2] is Mycobacterium smegmatis ATCC607. Nature of the data set: Antimicrobial activity of mimosamycin (Table 4). Particulars: Mycolicibacterium smegmatis, ATCC607, 48 h.
Data set [3] has as its system gram-positive bacteria. Put plainly: Biological properties of mimosamycin: activity against gram-positive bacteria. In kind it is cell-based.
Data set [4] is described as follows: Solubility. In kind it is physicochemical.
Data set [5] relates to acid-fast bacteria. Nature of the data set: Biological properties of mimosamycin: activity against acid-fast bacteria. Format: cell-based.
Data set [6] relates to highly streptomycin-resistant strains of human tubercle bacilli. In kind it is cell-based. Conditions: compared with normal strains of tubercle bacilli.
Data set [7] deals with gram-negative bacteria. Put plainly: Biological properties of mimosamycin: activity against gram-negative bacteria. Format: cell-based. Conditions: at a concentration of 50 μg/ml.
The subject of data set [8] is fungi. Nature of the data set: Biological properties of mimosamycin: activity against fungi. In kind it is cell-based. Particulars: at a concentration of 50 μg/ml.
The test system of data set [9] is Mycobacterium bovis No. 10. Put plainly: microbe, parasite or virus in culture. In kind it is cell-based. Particulars: Mycobacterium tuberculosis variant bovis, NO.10, 672 h.

As for `COC1=C(C)C(=O)c2cc(=O)n(C)cc2C1=O` [Mimosamycin], in data set [1], the “activity against tubercle bacilli” value was “specifically effective against tubercle bacilli”. Moreover, the values for the MIC in data set [2] and in data set [9] were 25 µg/mL (≈ 107 µM) and 6.25 µg/mL (≈ 26.8 µM), respectively. Further, in data set [3], the “activity against gram-positive bacteria” value was “active against gram-positive bacteria to a certain extent”. In addition, the Solubility result in data set [4] (in ethyl ether, n-hexane) was “Sparingly soluble”; in data set [4] (in methanol, ethanol, chloroform, esters, acetone), “Easily soluble”; in [4] (in water) it was “Insoluble”. For the same compound, the “activity against acid-fast bacteria” value in [5] is “active against acid-fast bacteria”. The “activity against highly streptomycin-resistant strains of human tubercle bacilli” value in data set [6] is “effective against highly streptomycin-resistant strains of human tubercle bacilli as is against normal strains of tubercle bacilli”. Moreover, the “activity against gram-negative bacteria” value in data set [7] was “non-effective”. Also, in data set [8], the activity against fungi result is given as “non-effective”.

(Values after US4127446A, “Process for producing antibiotics mimosamycin and chlorocarcins A, B and C” (priority 1975, dated 1978).)
